According to US20250041571A1, “DRUG COATED MEDICAL DEVICES” (Vanderbilt University, priority 2023, published 2025):
“Also recorded” adds a separate entry of the source.

What was measured:
[1] = tested on: cells of ex vivo rat aortas (isolated SMCs); test: Cellular uptake of fluorescent MK2i in treated rat aortas by flow cytometry; assay type: cell-based; conditions: flow cytometry 1 hour after treatment
Description: Flow Cytometry: After aorta treatment, samples were incubated in DMEM (+HEPES, +L-glutamine, +3% FBS, +1% Antibiotic/Antimycotic) for 1 hour to allow for cell uptake. The aortas were subsequently transferred to 500 μL of cold PBS+1% FBS and cut with scissors into small (˜1 mm) sized pieces. Digestion media in DMEM was then added to the PBS/tissue tube (500 μL) to achieve a final enzyme concentration of 0.7 mg/mL liberase, 4 mg/mL collagenase, and 0.2 mg/mL DNase and the tubes were placed in a 37° C. incubator on a shaker for ˜90 minutes or until digestion was apparent. After incubation, the samples were filtered through a 70 μm cell strainer and centrifuged at 500 g for 8 minutes. […] Cells were read for fluorescence on a Guava easyCyte HT and the resulting data was processed in FlowJo.
MK2i tissue transfer and cell uptake: Coated balloons (6 layers, 100 μM MK2i, 10 μM PPAA) were inflated in ex vivo rat aortas for 3 minutes and samples were cryosectioned to visualize fluorescent MK2i delivery (FIG. 9A, FIG. 9B, and FIG. 9C). ROIs were drawn around the vessel wall and total MK2i fluorescence was normalized to vessel wall cross sectional area. […] Cellular uptake was also measured with flow cytometry, quantifying cellular association of fluorescent MK2i within the treated tissue. […]

ex vivo rat aortas [2] = test: MK2i transfer from coated balloons to ex vivo rat aorta (confocal fluorescence, tissue lysate fluorescence); assay type: in vitro ADME
Description: Aorta treatment: Harvested aortas were damaged with an angioplasty balloon prior to treatment (3×, 15 seconds each, 25% overstretch). Coated balloons were then inserted into the aorta and pressurized for 3 minutes in DMEM (+HEPES, +L-glutamine, +3% FBS, +1% Antibiotic/Antimycotic), with deflation and reinflation at each minute mark to allow for maximum release and tissue transfer. After 3 minutes, the balloon was deflated and removed. The treated artery was then washed briefly with DMEM to remove excess MK2i and then processed for further experimentation or data collection. […]
Delivery visualization and quantification: Immediately after aorta treatment, samples were placed into OCT and frozen for cryosectioning. […] Then, total intensity of MK2i-568 within the arterial wall was calculated by subtracting the intensity of the inside segment from the intensity of the total segment. […]
MK2i Delivery and Retention Quantification: Tissue lysates prepped for western blotting were measured for presence of fluorescently labeled MK2i to quantify tissue delivery and retention. Tissue lysate fluorescence was measured on a TECAN Infinite M1000 Pro plate reader and compared to a standard curve of fluorescent MK2i to calculate tissue MK2i concentration. […]

[3] = Balloon loading and release quantification (3 min PBS soak, DMSO strip, fluorescence); assay type: physicochemical
Description: Balloon loading and release quantification: Angioplasty balloons (2.5 mm×20 mm) were coated with PPAA and MK2i-568 and then soaked in PBS with calcium and magnesium for 3 minutes to measure balloon release. The balloons were then soaked again in DMSO under sonication for 3 minutes to remove any remaining MK2i layers. The fluorescence of the PBS and DMSO solutions was measured on a TECAN Infinite M1000 Pro plate reader and compared to a standard curve of MK2i-568 in PBS and DMSO, respectively.
Balloon Loading and Release: Balloon release and total loading was quantified for different lactosucrose (LS) coating conditions. […] The fluorescence of these two solutions was then measured and used to quantify MK2i concentration (FIG. 5B and FIG. 5C).
Increasing balloon loading and release: To increase the amount of MK2i loaded onto and released from the balloons, two strategies were compared. […] Loading and release were measured as before—3 min wash in PBS followed by sonication in DMSO. The solution fluorescence was measured to determine loading and release.
Balloon loading and release quantification: Angioplasty balloons (2.5 mm×20 mm, Maverick OTW, Boston Scientific) were coated with PPAA and MK2i-568 and then soaked in PBS with calcium and magnesium for 3 minutes to measure balloon release. […]

ex vivo rat aortas [4] = test: Immunofluorescence of balloon damaged rat aortas after 7 d in flow loop bioreactor; assay type: cell-based; conditions: 7 d after balloon injury

Row | MK2i release from balloon ([3]; 3 minutes in PBS) | MK2i loading (comparison in words) ([3]; between coating conditions) | Molecule | cellular / intracellular uptake of MK2i [1] | MK2i transfer to the tissue (fluorescence in vessel wall) (ex vivo rat aortas [2]; immediately after 3 min balloon inflation) | depth of MK2i delivery into the vessel wall (intensity profile) (ex vivo rat aortas [2]; immediately after balloon inflation) | MYH expression (ex vivo rat aortas [4]) | SM22 expression (ex vivo rat aortas [4])
1 | did not yield any differences | did not yield any differences | OC[C@H]1O[C@@H](O[C@H]2[C@H](O)[C@@H](O)[C@@H](O[C@]3(CO)O[C@H](CO)[C@@H](O)[C@@H]3O)O[C@@H]2CO)[C@H](O)[C@@H](O)[C@H]1O [LS, lactosucrose] | benefited; also recorded: significantly increased the intracellular uptake | benefited; also recorded: increased MK2i transfer to the tissue | modest effect on increasing the depth of delivery | – | –
2 | – | – | MAPKAP Kinase II inhibitory peptide [MK2i] | – | – | – | preserving expression | preserving expression
